Source: ChEMBL document CHEMBL4138181, “Synthesis, molecular docking, and QSAR study of sulfonamide-based indoles as aromatase inhibitors” (Eur J Med Chem, 2018)

system: aromatase; assay: Selectivity index, ratio of IC50 for GFP-expressing African green monkey Vero cells to IC50 for aromatase (unknown origin); type: toxicity; details: read-out: Ratio IC50

Row | SMILES | selectivity ratio
1 | Cc1ccc(S(=O)(=O)NCCc2c(C(c3ccccc3O)c3[nH]c4ccccc4c3CCNS(=O)(=O)c3ccc(C)cc3)[nH]c3ccccc23)cc1 | 3.6
2 | O=[N+]([O-])c1ccc(S(=O)(=O)NCCc2c(C(c3ccccc3O)c3[nH]c4ccccc4c3CCNS(=O)(=O)c3ccc([N+](=O)[O-])cc3)[nH]c3ccccc23)cc1 | > 22.5
3 | O=S(=O)(NCCc1c(C(c2ccc(O)cc2)c2[nH]c3ccccc3c2CCNS(=O)(=O)c2ccc(Cl)cc2)[nH]c2ccccc12)c1ccc(Cl)cc1 | 10.7
4 | O=C1Nc2ccccc2C1(c1[nH]c2ccccc2c1CCNS(=O)(=O)c1cccc([N+](=O)[O-])c1)c1[nH]c2ccccc2c1CCNS(=O)(=O)c1cccc([N+](=O)[O-])c1 | > 5.13
5 | O=S(=O)(NCCc1c(C(c2ccc(C(F)(F)F)cc2)c2[nH]c3ccccc3c2CCNS(=O)(=O)c2ccc(Cl)cc2)[nH]c2ccccc12)c1ccc(Cl)cc1 | 5.06
6 | O=S(=O)(NCCc1c(C(c2ccc(F)cc2)c2[nH]c3ccccc3c2CCNS(=O)(=O)c2ccc(Br)cc2)[nH]c2ccccc12)c1ccc(Br)cc1 | > 7.61
7 | COc1ccc(S(=O)(=O)NCCc2c(C(c3ccc(O)cc3)c3[nH]c4ccccc4c3CCNS(=O)(=O)c3ccc(OC)cc3)[nH]c3ccccc23)cc1 | > 93.4
8 | O=S(=O)(NCCc1c(C(c2ccccc2O)c2[nH]c3ccccc3c2CCNS(=O)(=O)c2ccc(Cl)cc2)[nH]c2ccccc12)c1ccc(Cl)cc1 | > 15.4
9 | Cc1ccc(S(=O)(=O)NCCc2c(C(c3ccccc3)c3[nH]c4ccccc4c3CCNS(=O)(=O)c3ccc(C)cc3)[nH]c3ccccc23)cc1 | > 5.86
10 | O=S(=O)(NCCc1c(C(c2ccc(Br)cc2)c2[nH]c3ccccc3c2CCNS(=O)(=O)c2ccc(Cl)cc2)[nH]c2ccccc12)c1ccc(Cl)cc1 | 16.6
11 | O=[N+]([O-])c1ccc(C(c2[nH]c3ccccc3c2CCNS(=O)(=O)c2ccc(C(F)(F)F)cc2)c2[nH]c3ccccc3c2CCNS(=O)(=O)c2ccc(C(F)(F)F)cc2)cc1 | > 14.4
12 | O=S(=O)(NCCc1c(C(c2ccc3c(c2)Cc2ccccc2-3)c2[nH]c3ccccc3c2CCNS(=O)(=O)c2ccc(Cl)cc2)[nH]c2ccccc12)c1ccc(Cl)cc1 | > 6.72
13 | N#Cc1ccc(C(c2[nH]c3ccccc3c2CCNS(=O)(=O)c2ccc(F)cc2)c2[nH]c3ccccc3c2CCNS(=O)(=O)c2ccc(F)cc2)cc1 | > 6.8
14 | N#Cc1ccc(C(c2[nH]c3ccccc3c2CCNS(=O)(=O)c2ccc(C(F)(F)F)cc2)c2[nH]c3ccccc3c2CCNS(=O)(=O)c2ccc(C(F)(F)F)cc2)cc1 | > 3.85
15 | COc1ccc(S(=O)(=O)NCCc2c(C3(c4[nH]c5ccccc5c4CCNS(=O)(=O)c4ccc(OC)cc4)C(=O)Nc4ccccc43)[nH]c3ccccc23)cc1 | > 22.6
16 | O=C1Nc2ccccc2C1(c1[nH]c2ccccc2c1CCNS(=O)(=O)c1ccccc1[N+](=O)[O-])c1[nH]c2ccccc2c1CCNS(=O)(=O)c1ccccc1[N+](=O)[O-] | > 6.22
17 | O=[N+]([O-])c1ccc(C(c2[nH]c3ccccc3c2CCNS(=O)(=O)c2ccc(F)cc2)c2[nH]c3ccccc3c2CCNS(=O)(=O)c2ccc(F)cc2)cc1 | > 18.6

target: T1, Aromatase (Homo sapiens, UniProt P11511); assay: Inhibition of aromatase (unknown origin) using O-benzyl fluorescein benzyl ester as substrate in presence of NADPH-generating system by fluorescence assay; details: not given
T1 sequence (P11511 whole entry): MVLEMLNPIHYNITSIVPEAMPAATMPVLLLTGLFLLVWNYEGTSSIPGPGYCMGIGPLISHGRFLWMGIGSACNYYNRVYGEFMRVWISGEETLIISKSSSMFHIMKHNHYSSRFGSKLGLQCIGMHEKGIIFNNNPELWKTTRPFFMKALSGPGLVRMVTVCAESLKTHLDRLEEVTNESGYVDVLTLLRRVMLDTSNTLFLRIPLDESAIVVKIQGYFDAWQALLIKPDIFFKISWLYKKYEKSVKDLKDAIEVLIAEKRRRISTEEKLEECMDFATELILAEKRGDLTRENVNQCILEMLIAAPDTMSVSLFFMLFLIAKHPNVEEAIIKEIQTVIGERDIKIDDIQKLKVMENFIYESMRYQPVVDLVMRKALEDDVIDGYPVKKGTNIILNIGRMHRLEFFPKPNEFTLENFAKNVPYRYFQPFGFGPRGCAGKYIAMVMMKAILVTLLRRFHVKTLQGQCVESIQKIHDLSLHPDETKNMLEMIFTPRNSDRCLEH

Row | SMILES | IC50
18 | O=S(=O)(NCCc1c(C(c2ccc(O)cc2)c2[nH]c3ccccc3c2CCNS(=O)(=O)c2ccc(Cl)cc2)[nH]c2ccccc12)c1ccc(Cl)cc1 | 1.4 µM
19 | COc1ccc(S(=O)(=O)NCCc2c(C(c3ccc(O)cc3)c3[nH]c4ccccc4c3CCNS(=O)(=O)c3ccc(OC)cc3)[nH]c3ccccc23)cc1 | 0.7 µM
20 | Cc1ccc(S(=O)(=O)NCCc2c(C(c3ccccc3)c3[nH]c4ccccc4c3CCNS(=O)(=O)c3ccc(C)cc3)[nH]c3ccccc23)cc1 | 11.9 µM
21 | O=[N+]([O-])c1ccc(C(c2[nH]c3ccccc3c2CCNS(=O)(=O)c2ccc(C(F)(F)F)cc2)c2[nH]c3ccccc3c2CCNS(=O)(=O)c2ccc(C(F)(F)F)cc2)cc1 | 4 µM
22 | N#Cc1ccc(C(c2[nH]c3ccccc3c2CCNS(=O)(=O)c2ccc(C(F)(F)F)cc2)c2[nH]c3ccccc3c2CCNS(=O)(=O)c2ccc(C(F)(F)F)cc2)cc1 | 15.3 µM
23 | O=C1Nc2ccccc2C1(c1[nH]c2ccccc2c1CCNS(=O)(=O)c1ccccc1[N+](=O)[O-])c1[nH]c2ccccc2c1CCNS(=O)(=O)c1ccccc1[N+](=O)[O-] | 9.8 µM
24 | O=[N+]([O-])c1ccc(C(c2[nH]c3ccccc3c2CCNS(=O)(=O)c2ccc(F)cc2)c2[nH]c3ccccc3c2CCNS(=O)(=O)c2ccc(F)cc2)cc1 | 3.5 µM

Continued by falling IC50, values first:

Row | IC50 | SMILES
25 | 11.9 µM | O=C1Nc2ccccc2C1(c1[nH]c2ccccc2c1CCNS(=O)(=O)c1cccc([N+](=O)[O-])c1)c1[nH]c2ccccc2c1CCNS(=O)(=O)c1cccc([N+](=O)[O-])c1
26 | 9.8 µM | N#Cc1ccc(C(c2[nH]c3ccccc3c2CCNS(=O)(=O)c2ccc(F)cc2)c2[nH]c3ccccc3c2CCNS(=O)(=O)c2ccc(F)cc2)cc1
27 | 8.8 µM | O=S(=O)(NCCc1c(C(c2ccc3c(c2)Cc2ccccc2-3)c2[nH]c3ccccc3c2CCNS(=O)(=O)c2ccc(Cl)cc2)[nH]c2ccccc12)c1ccc(Cl)cc1
28 | 7.6 µM | O=S(=O)(NCCc1c(C(c2ccc(F)cc2)c2[nH]c3ccccc3c2CCNS(=O)(=O)c2ccc(Br)cc2)[nH]c2ccccc12)c1ccc(Br)cc1
29 | 4.2 µM | O=S(=O)(NCCc1c(C(c2ccccc2O)c2[nH]c3ccccc3c2CCNS(=O)(=O)c2ccc(Cl)cc2)[nH]c2ccccc12)c1ccc(Cl)cc1
30 | 4.1 µM | Cc1ccc(S(=O)(=O)NCCc2c(C(c3ccccc3O)c3[nH]c4ccccc4c3CCNS(=O)(=O)c3ccc(C)cc3)[nH]c3ccccc23)cc1
31 | 3.2 µM | O=S(=O)(NCCc1c(C(c2ccc(C(F)(F)F)cc2)c2[nH]c3ccccc3c2CCNS(=O)(=O)c2ccc(Cl)cc2)[nH]c2ccccc12)c1ccc(Cl)cc1
32 | 2.8 µM | O=[N+]([O-])c1ccc(S(=O)(=O)NCCc2c(C(c3ccccc3O)c3[nH]c4ccccc4c3CCNS(=O)(=O)c3ccc([N+](=O)[O-])cc3)[nH]c3ccccc23)cc1
33 | 2.8 µM | COc1ccc(S(=O)(=O)NCCc2c(C3(c4[nH]c5ccccc5c4CCNS(=O)(=O)c4ccc(OC)cc4)C(=O)Nc4ccccc43)[nH]c3ccccc23)cc1
34 | 2.7 µM | O=S(=O)(NCCc1c(C(c2ccc(Br)cc2)c2[nH]c3ccccc3c2CCNS(=O)(=O)c2ccc(Cl)cc2)[nH]c2ccccc12)c1ccc(Cl)cc1

system: Vero; assay: Cytotoxicity against GFP-expressing African green monkey Vero cells after 4 days by fluorescence assay; type: cell-based; details: Chlorocebus sabaeus, 96 h

Row | SMILES | IC50
35 | Cc1ccc(S(=O)(=O)NCCc2c(C(c3ccccc3O)c3[nH]c4ccccc4c3CCNS(=O)(=O)c3ccc(C)cc3)[nH]c3ccccc23)cc1 | 14.8 µM
36 | O=[N+]([O-])c1ccc(S(=O)(=O)NCCc2c(C(c3ccccc3O)c3[nH]c4ccccc4c3CCNS(=O)(=O)c3ccc([N+](=O)[O-])cc3)[nH]c3ccccc23)cc1 | > 50 µg/mL
37 | O=S(=O)(NCCc1c(C(c2ccc(O)cc2)c2[nH]c3ccccc3c2CCNS(=O)(=O)c2ccc(Cl)cc2)[nH]c2ccccc12)c1ccc(Cl)cc1 | 15 µM
38 | O=C1Nc2ccccc2C1(c1[nH]c2ccccc2c1CCNS(=O)(=O)c1cccc([N+](=O)[O-])c1)c1[nH]c2ccccc2c1CCNS(=O)(=O)c1cccc([N+](=O)[O-])c1 | > 50 µg/mL
39 | O=S(=O)(NCCc1c(C(c2ccc(C(F)(F)F)cc2)c2[nH]c3ccccc3c2CCNS(=O)(=O)c2ccc(Cl)cc2)[nH]c2ccccc12)c1ccc(Cl)cc1 | 16.2 µM
40 | O=S(=O)(NCCc1c(C(c2ccc(F)cc2)c2[nH]c3ccccc3c2CCNS(=O)(=O)c2ccc(Br)cc2)[nH]c2ccccc12)c1ccc(Br)cc1 | > 50 µg/mL
41 | COc1ccc(S(=O)(=O)NCCc2c(C(c3ccc(O)cc3)c3[nH]c4ccccc4c3CCNS(=O)(=O)c3ccc(OC)cc3)[nH]c3ccccc23)cc1 | > 50 µg/mL
42 | O=S(=O)(NCCc1c(C(c2ccccc2O)c2[nH]c3ccccc3c2CCNS(=O)(=O)c2ccc(Cl)cc2)[nH]c2ccccc12)c1ccc(Cl)cc1 | > 50 µg/mL
43 | Cc1ccc(S(=O)(=O)NCCc2c(C(c3ccccc3)c3[nH]c4ccccc4c3CCNS(=O)(=O)c3ccc(C)cc3)[nH]c3ccccc23)cc1 | > 50 µg/mL
44 | O=S(=O)(NCCc1c(C(c2ccc(Br)cc2)c2[nH]c3ccccc3c2CCNS(=O)(=O)c2ccc(Cl)cc2)[nH]c2ccccc12)c1ccc(Cl)cc1 | 44.9 µM
45 | O=[N+]([O-])c1ccc(C(c2[nH]c3ccccc3c2CCNS(=O)(=O)c2ccc(C(F)(F)F)cc2)c2[nH]c3ccccc3c2CCNS(=O)(=O)c2ccc(C(F)(F)F)cc2)cc1 | > 50 µg/mL
46 | O=S(=O)(NCCc1c(C(c2ccc3c(c2)Cc2ccccc2-3)c2[nH]c3ccccc3c2CCNS(=O)(=O)c2ccc(Cl)cc2)[nH]c2ccccc12)c1ccc(Cl)cc1 | > 50 µg/mL
47 | N#Cc1ccc(C(c2[nH]c3ccccc3c2CCNS(=O)(=O)c2ccc(F)cc2)c2[nH]c3ccccc3c2CCNS(=O)(=O)c2ccc(F)cc2)cc1 | > 50 µg/mL
48 | N#Cc1ccc(C(c2[nH]c3ccccc3c2CCNS(=O)(=O)c2ccc(C(F)(F)F)cc2)c2[nH]c3ccccc3c2CCNS(=O)(=O)c2ccc(C(F)(F)F)cc2)cc1 | > 50 µg/mL
49 | COc1ccc(S(=O)(=O)NCCc2c(C3(c4[nH]c5ccccc5c4CCNS(=O)(=O)c4ccc(OC)cc4)C(=O)Nc4ccccc43)[nH]c3ccccc23)cc1 | > 50 µg/mL
50 | O=C1Nc2ccccc2C1(c1[nH]c2ccccc2c1CCNS(=O)(=O)c1ccccc1[N+](=O)[O-])c1[nH]c2ccccc2c1CCNS(=O)(=O)c1ccccc1[N+](=O)[O-] | > 50 µg/mL
51 | O=[N+]([O-])c1ccc(C(c2[nH]c3ccccc3c2CCNS(=O)(=O)c2ccc(F)cc2)c2[nH]c3ccccc3c2CCNS(=O)(=O)c2ccc(F)cc2)cc1 | > 50 µg/mL
